{"source": "patent US20180305408A1", "about": "“COMPOUNDS FOR INDUCING TISSUE FORMATION AND USES THEREOF” (HISTIDE AG, priority 2015, published 2018)", "key": {"[1]": {"assay": "Stability of non-covalent coating of fluorescent peptides on apatite ceramics or type-I collagen sponge", "type": "physicochemical", "conditions": "FITC-bound peptide on apatite ceramics or type-I collagen sponge; after 3, 7 or 10 days", "method": "Non-covalent modifications of the materials were performed in Air Atmosphere at room temperature. The non-covalent coating strategy consisted in using a mixture of compound of the invention (SEQ ID NO: 9; concentration of 1×10^−3M) with an apatite ceramics implant or a mixture of compound of the invention (SEQ ID NO: 10; concentration of 1×10^−3M) with a type-I collagen sponge. The non-covalently coated conventional materials were characterized by using fluorescent peptides (Here SEQ ID NO: 9 and 10 covalently bound to fluorescein isothiocyanate (FITC), FIG. 3). The results shown here in FIG. 3 were obtained from experiments performed with apatite ceramics and a type-I collagen sponge. […] Indeed, after 3, 7 or 10 days, the osteogenic peptides were still coupled to the ceramics or the type-I collagen (FIG. 4). The biomaterial surface was characterized by X-ray photoelectron spectroscopy (Table 1). The X-ray photoelectron spectroscopy was performed as described in the Methods section."}, "hMSCs [2]": {"system": "hMSCs", "assay": "ALP activity of hMSCs on type-I collagen sponge coupled with compound", "type": "cell-based, Human", "conditions": "after 1 week of culture on type-I collagen sponge", "excerpt": "Finally, it was verified that the hMSCs were differentiated into mature osteoblasts by analyzing the activity of the osteogenic biomarker ALP (Alkaline Phosphatase Activity). We observed an increase in the ALP activity after 1 week of culture on type-I collagen sponge coupled with GFR-binding compounds as defined herein (SEQ ID NO: 19) (FIG. 8b)."}, "osteoblast progenitors": {"system": "osteoblast progenitors", "assay": "Osteogenic differentiation of osteoblast progenitors on coated materials (Osteopontin staining, Runx2 Q-PCR)", "type": "cell-based", "conditions": "48 hours on coated apatite ceramics or type-I collagen sponge vs native materials", "method": "The cells were first fixed for 20 min with 4% paraformaldehyde/PBS at 4° C. After fixation, the cells were permeabilized in PBS containing 1% Triton X-100 for 15 min. Runx2, Osterix, Stro-1, Vinculin, Phalloidin, Osteopontin, Sox2, Sox9 antibodies were visualized by treating the cells with 1% (v/v) specific monoclonal antibodies for 1 hour at 37° C. Then the samples were incubated with Alexa Fluor® 568 or 647 (F(ab′)2 fragment of IgG(H+L)) during 30 min at room temperature. The cell nuclei were counterstained in 20 ng/mL DAPI for 10 min at room temperature.\nTotal RNA was extracted by using the RNeasy total RNA kit (Qiagen®) according to the manufacturer's instructions. Purified total RNA was used as a template in order to make cDNA by a reverse transcription reaction (Gibco Brl®) with random primers (Invitrogen®). […] Data were analyzed with the iCycler IQ™® software and compared by the ΔΔCt method. […]\nThe effect of the GFR-binding compounds as defined herein (SEQ ID NO: 19 and 20) on the differentiation of osteoblast progenitors was evaluated. […]\nFinally, it was verified that the osteoblast progenitors were differentiated into mature osteoblasts by analyzing the expression of the osteogenic biomarker Runx2. An increase in the Runx2 gene expression after 24 hours of culture (FIG. 8a) was observed by using Quantitative Real Time Polymerase Chain Reaction as described in the Methods section."}, "hMSCs [3]": {"system": "hMSCs", "assay": "Cartilage regeneration: chondrocyte differentiation of hMSCs (Sox9, Aggrecan)", "type": "cell-based, Human", "conditions": "after 96 hours of culture", "method": "Total RNA was extracted by using the RNeasy total RNA kit (Qiagen®) according to the manufacturer's instructions. Purified total RNA was used as a template in order to make cDNA by a reverse transcription reaction (Gibco Brl®) with random primers (Invitrogen®). The cDNA was then used as a template for a real-time PCR amplification in the presence of SYBR green reagents (Bio-Rad®) by using a thermocycler (iCycler, Biorad®). Data were analyzed with the iCycler IQ™® software and compared by the ΔΔCt method. […]\nTotal RNA was extracted by using the RNeasy Mini Kit (Qiagen) and […] RNA was used for cDNA synthesis with AMV kit (Invitrogen®) according to the manufacturer′ instructions. Semi-quantitative reverse transcriptase-polymerase chain reaction (RT-PCR) was performed with Taq DNA Polymerase (Invitrogen®) in a thermocycler (Bio-Rad®). […] The PCR products were analyzed on 2% agarose gels. For the Aggrecan gene, the PCR bands were densitometrically quantified by using the BioCapt software (Vilber). […]\nIt was then verified that these hMSCs cultured with and without GFR-binding compounds as defined herein were differentiated into chondrocyte cells by analyzing the expression of the chondrocyte gene biomarker: Aggrecan. […] For that a semi-quantitative RT-PCR was performed as described in the Methods section for the Aggrecan gene and a Quantitative Real Time PCR for Sox9."}, "[4]": {"system": "Human umbilical-vein endothelial cells", "assay": "Endothelialization: area of adherent junctions (CD31) in HUVECs", "type": "cell-based", "conditions": "after 36 hours of culture", "method": "Human umbilical-vein endothelial cells were cultured with and without endothelialization GFR-binding compounds as defined herein (SEQ ID NO: 26). An increase in the area of the adherent junctions (CD31) was observed after 36 hours of culture with GFR-binding compounds as defined herein (FIG. 10)."}, "[5]": {"system": "Human umbilical-vein endothelial cells", "assay": "Angiogenesis: tube-like structure formation by HUVECs", "type": "cell-based", "conditions": "after 18 hours of culture", "method": "Human umbilical-vein endothelial cells were cultured with and without vascular peptides (SEQ ID NO: 27)."}, "Hair Follicle Stem Cells": {"system": "Hair Follicle Stem Cells", "assay": "Activation of hair follicle stem cells (Sox2 expression, BMP-6 release)", "type": "cell-based, Mouse", "excerpt": "The following starting materials and reagents were used: • Apatite ceramics (also called apatite or ceramic in the present invention) were synthetized as described in Mater Res. 2004; 7(4): 625-630. • Titanium was obtained from Goodfellow®. • Hydrogel (poly(acrylamide-co-acrylic acid) gel) was synthetized as described in Langmuir 2011; 27(22):13635-42. • PEEK was obtained from Goodfellow®. • PET (Poly(ethylene terephthtalate) was obtained from Goodfellow@. • Type-I collagen sponge was obtained from Sigma®. • Hexane was obtained from Sigma®. • 3-succinimidyl-3-maleimidopropionate (SMP) was obtained from Sigma®. • DMF was obtained from Sigma®. • PBS 1× was obtained from Gibco®. • 3-(ethoxydimethylsilyl)propylamine was obtained from Sigma®. • Ammonium persulfate was obtained from Biorad®. • N,N,N′,N′-tetramethylethylenediamine was obtained from Aldrich®. • Acrylamid was obtained from Merck®. • Acrylic acid was obtained from Merck®. • N,N-methylene-bis-acrylamide was obtained from Merck®. • NaOH was obtained from Aldrich®. • N,N,N′,N′-tetramethylethylenediamine was obtained from Aldrich®. • Dimethylaminopropyl-3-ethylcarbodiimide hydrochloride was obtained from Aldrich®. • N-hydroxysuccinimide was obtained from Aldrich®. • 2-(N-morpholino)-ethane sulfonic acid was obtained from Aldrich®. • MilliQ water: is water characterised in terms of resistivity (typically 18.2 MΩ·cm at 25° C.). • Low glucose Dulbecco's Modified Eagle Medium (DMEM) was obtained from Invitrogen® • Minimum Essential Medium Eagle without ascorbic acid (αMEM) was obtained from Invitrogen®. • All of the cell culture experiments were carried out without any serum in the medium for the first 8 hours of culture. • Osteoblast progenitors or precursor osteoblasts: MC3T3-E1 cells were obtained from ATCC®. These cells were cultured in Alpha-MEM medium supplemented with 10% fetal calf serum (FCS) and 1% penicillin/streptomycin. All cells were used at a low passage number (passage 7), were subconfluently cultured and were seeded at 10^4 cells/cm^2 for the purpose of the experiments. • Human bone marrow Mesenchymal Stem Cells (hMSCs) were obtained from Lonza®. These cells were cultured in Alpha-MEM supplemented with 10% (v/v) FBS and 1% penicillin/streptomycin and incubated in a humidified atmosphere containing 5% (v/v) CO2 at 37° C. All cells were used at a low passage number (passage 2 to 4), were subconfluently cultured and were seeded at 10^4 cells/cm^2 for the purpose of the experiments. • Human adipose Mesenchymal Stem Cells (haMSCs) were obtained from Lonza®. These cells were cultured in Alpha-MEM supplemented with 10% (v/v) FBS and 1% penicillin/streptomycin and incubated in a humidified atmosphere containing 5% (v/v) CO2 at 37° C. […]"}, "Neurons": {"system": "Neurons", "assay": "Neuron growth (dendrite growth, GAP43 Q-PCR)", "type": "cell-based", "excerpt": "[…]"}}, "note": "No end group written: not given here."}
{"substance": "SEQ ID NO: 9: compound of the invention non-covalently coated on apatite ceramics; tested bound to FITC; sequence not in this part (WWFWGSAISTLYLIGKTPKILKNYQ; also: FITC label, site not given here, cyclic, ring not given here)", "values": [{"measurement": "release of peptides from the coated material over time", "setting": "[1]", "result": "no significant release"}]}
{"substance": "SEQ ID NO: 10: compound of the invention non-covalently coated on type-I collagen sponge; tested bound to FITC; sequence not in this part (GTPGPSAISTLYLIGKTPKILKNYQ; also: cyclic, ring type not given here, bound to FITC, place not given here)", "values": [{"measurement": "release of peptides from the coated material over time", "setting": "[1]", "result": "no significant release"}]}
{"substance": "SEQ ID NO: 19: GFR-binding compound, osteogenic, coated on apatite ceramics or collagen sponge; sequence not in this part (WWFWGSAISTLYLDEYDKVVLKNYQ; also: cyclic, ring type not given here)", "values": [{"measurement": "ALP activity", "setting": "hMSCs [2]", "result": "increase"}, {"measurement": "production of extracellular matrix proteins such as Osteopontin (OPN)", "setting": "osteoblast progenitors", "result": "extensive amounts"}]}
{"substance": "SEQ ID NO: 20: GFR-binding compound, osteogenic, coated on apatite ceramics or collagen sponge; sequence not in this part (GTPGPSAISTLYLGGGGLKNYQ; also: cyclic, ring type not given here)", "values": [{"measurement": "production of extracellular matrix proteins such as Osteopontin (OPN)", "setting": "osteoblast progenitors", "result": "extensive amounts"}]}
{"substance": "SEQ ID NO: 23: GFR-binding compound inducing cartilage regeneration; sequence not in this part (ELEPLPIVYYVGRKPKVEQLSNGG; also: cyclic, ring type not given here)", "values": [{"measurement": "expression of the Sox9 protein", "setting": "hMSCs [3]", "result": "expression of the Sox9 protein was observed"}]}
{"substance": "SEQ ID NO: 24: GFR-binding compound inducing cartilage regeneration; sequence not in this part (EPLPIVYYVGRTPKVEQLSNGG; also: cyclic, ring type not given here)", "values": [{"measurement": "expression of the Sox9 protein", "setting": "hMSCs [3]", "result": "expression of the Sox9 protein was observed"}]}
{"substance": "SEQ ID NO: 26: endothelialization GFR-binding compound; sequence not in this part (RSVKVAKVRIKPHQGQHKEVQVGG; also: cyclic, ring type not given here)", "values": [{"measurement": "area of the adherent junctions (CD31)", "setting": "[4]", "result": "increase"}]}
{"substance": "SEQ ID NO: 27: vascular peptide; sequence not in this part (SNITMQIMRIKPHQGQHIGEMSGG; also: cyclic, ring type not given here)", "values": [{"measurement": "formation of tube-like structures", "setting": "[5]", "result": "formation of tube-like structures was observed"}]}
{"substance": "SEQ ID NO: 29: GFR-binding compound tested on hair follicle stem cells; sequence not in this part (DENKNSSLSILFFDENKNVVLKVYP; also: cyclic, ring type not given here)", "values": [{"measurement": "BMP-6 release in the cell culture medium", "setting": "Hair Follicle Stem Cells", "result": "decrease"}, {"measurement": "Sox2 protein expression", "setting": "Hair Follicle Stem Cells", "result": "increase"}]}
{"substance": "SEQ ID NO: 30: GFR-binding compound tested on hair follicle stem cells; sequence not in this part (DENEKSSLSILFFDENEKVVLKVYP; also: cyclic, ring type not given here)", "values": [{"measurement": "BMP-6 release in the cell culture medium", "setting": "Hair Follicle Stem Cells", "result": "decrease"}, {"measurement": "Sox2 protein expression", "setting": "Hair Follicle Stem Cells", "result": "increase"}]}
{"substance": "SEQ ID NO: 38: neurogenic peptide; sequence not in this part (SPISILYIDAANNVVYKQYEDAAN; also: cyclic, ring type not given here)", "values": [{"measurement": "establishment of cell-cell contacts via dendrite growth", "setting": "Neurons; after 6 hours of culture", "result": "rapid establishment of cell-cell contacts"}, {"measurement": "GAP43 gene expression", "setting": "Neurons; after 48 hours of culture, Q-PCR", "result": "high level of expression"}]}
